Key:
[1] = test system: human soft tissue sarcoma (HT-1080) xenografts; assay: Inhibition of HT1080 xenograft growth (soft tissue sarcoma model, HMT injected near tumor); format: in vivo, mice
Procedure: HMT was injected near the palpable soft tissue sarcoma tumors after 18 days when their size reached an average of 195 mm3 (range, 90-500 mm3). The mice were separated into two cohorts: (i) 3 intravenous doses of 14 μmoles/kg of doxorubicin every 4 days (maximum tolerable dose), (27, 49) or (ii) daily doses of 14 μmoles/kg of doxorubicin for 10 days (FIG. 18B). Tumor volumes were measured twice a week for 13 weeks (FIG. 18A). No further therapies were given to the subjects 28 days post tumoral implantation (dpi).

[2] = 3 days after the last treatment, after injection of HMT
Procedure: Samples were collected 3 days after the last treatment. Data are means±SD (n=2).
Reticulocyte measurements. Two mice per condition were anesthetized with isoflurane anesthesia 3 days after the last treatment during the nadir of reticulocyte decrease. (27) Blood was collected by cardiac puncture in a syringe containing lithium heparin to prevent coagulation. RBC and reticulocyte concentrations were determined the same day using a DEXX ProCyte Dx Hematology Analyzer (IDEXX Laboratories, Inc.).

[3] = xenograft mice, HMT injected
[4] = test system: HT1080 cells; assay: MTT cytotoxicity assay; conditions: read-out: 50% growth inhibitory concentration (IC50), 48 h treatment followed by additional 48 h in DMEM
Procedure: Cells were treated with the drug or the pro-drug for 48 h, followed by additional 48 h in DMEM, prior to measuring their viability.
HT1080 cells were purchased from ATCC (cat. #CCL-121), and propagated in Dulbecco's modified Eagle's medium (DMEM; Meditech, Inc. Corning, Manassas, VA) containing 5% fetal bovine serum (FBS; HyClone, Logan Utah), supplemented with 100 U/ml penicillin, and 100 μg/ml streptomycin (Life Tech Corp., Grand Island, NY) at 37° C. in a 5% CO2 incubator.
Day one: using 96-well format, plated˜100 cells/well in 100 μL DMEM and incubated for 24 h. […] Day four: the medium was replaced with 100 μL of fresh DMEM and the cells were incubated for 48 h. Day six: DMEM was removed and the cells were incubated with 100 μL of MTT solution (0.6 mg/mL in DMEM) per well for 4 h at 37° C. The MTT solution was then replaced with 100 μL of DMSO containing 4% aqueous ammonia per well to dissolve the purple formazan crystals. After 30 min, the absorbance of each well at 550 nm was recorded using BioTek Synergy HT multi detection microplate reader. Results were averaged from three independent arrays of triplicate experiments.

COc1cccc2c1C(=O)c1c(O)c3c(c(O)c1C2=O)C[C@@](O)(C(=O)CO)C[C@@H]3O[C@H]1C[C@H](N)[C@H](O)[C@H](C)O1 [doxorubicin]
median tumor size ([1]; 2 weeks after the last treatment dose (40 dpi), HMT near tumor): undetectable
mice with a mild response ([1]; 40 dpi, HMT near tumor): 1/5
median tumor size ([1]; 30 days after the last treatment dose (60 dpi), HMT near tumor): greater than 2000 mm^3
mice that reached the study endpoint of 2000 mm3 ([1]; by 88 dpi): 5/5
reticulocyte counts [2]: dramatic decrease in reticulocytes
body weight lost [3]: about 20%
IC50 [4]: 18 nM

Source: US12527874B2, “Bioorthogonal compositions” (TAMBO, INC., priority 2015, dated 2026)
